Laboratory results as given in article PMC10590056, “Design and synthesis of cabotegravir derivatives bearing 1,2,3-triazole and evaluation of anti-liver cancer activity” (Frontiers in Pharmacology, 2023).
“And” between values parts separate entries of the source, which are not always exact repeats. Equal values may be shown once.

Assays:
Format in all cases: cell-based
HepG2 cells = test: MTT assay for cell proliferation and cytotoxicity, HepG2; set-up: key to Inhibitory rate: inhibition rate = 1 - mean A490 sample/mean A490 control (fraction); details: for IC50: HepG2, 48 h, MTT; for Inhibitory rate / ODtreated/ODcontrol: HepG2, fraction, per experiment; for Inhibition rate (16μM), 48 h, HepG2: preliminary screening, HepG2, 16 μM, mean±SD, unit not given
Protocol: (§1) HepG2, HeLa, MCF-7, and KYSE-30 cells were grown in a humidified incubator at 37°C with 5% CO2 in DMEM supplemented with 10% fetal bovine serum (FBS), […] streptomycin, and 100 U/mL penicillin.
(§2) When HepG2 cells reached 80% confluence, they were treated with 1 mL of trypsin and resuspended at a density of 10^5 cells/mL. Then, 100 μL of cell suspension was seeded into each well of a 96-well plate and incubated in a humidified atmosphere. The different concentrations of KJ-5 and KJ-12 (0, 1, 2, 4, 8, 16, and 32 μM) were added to each well, and the cells were further incubated for 48 h. Afterward, 20 μL of the MTT solution (5 mg/mL) was added to each well, and incubation was continued for another 4 h. The supernatant was discarded, and 200 μL of the DMSO solution was added to each well. The plate was shaken for 10 min in the dark. The absorbance values were measured at 490 nm using an enzyme-linked detector. The cell inhibition rate (%) was calculated using the following formula: (1-Mean A490 sample/Mean A490 control) × 100%.

MCF-7 cells = test: MTT assay for cell proliferation, MCF-7; set-up: key to Inhibitory rate / Inhibition rate: inhibition rate = 1 - mean A490 sample/mean A490 control (fraction); details: for Inhibition rate (16μM), 48 h, MCF-7: preliminary screening, MCF-7, 16 μM, mean±SD, unit not given
Protocol: as §1, §2

KYSE-30 cells = test: MTT assay for cell proliferation, KYSE-30; set-up: key to Inhibitory rate: inhibition rate = 1 - mean A490 sample/mean A490 control (fraction); details: for Inhibitory rate: KYSE-30, given as fraction; for Inhibition rate (16μM), 48 h, KYSE-30: preliminary screening, KYSE-30, 16 μM, mean±SD, unit not given
Protocol: as §1, §2

HeLa cells = test: MTT assay for cell proliferation, HeLa; set-up: key to Inhibitory rate: inhibition rate = 1 - mean A490 sample/mean A490 control (fraction); details: Hela; for Inhibitory rate / ODtreated/ODcontrol: fraction, per experiment; for Inhibition rate (16μM), 48 h, Hela: preliminary screening, mean±SD, unit not given
Protocol: as §1, §2

[1] = MCF-7, fraction, per experiment
[2] = given as fraction, second of three experiments
[3] = given as fraction, third of three experiments
[4] = KYSE-30, first of three experiments
[5] = KYSE-30, second of three experiments
[6] = KYSE-30, third of three experiments

Structure (SMILES) | Inhibitory rate (MCF-7 cells; [1]) | ODtreated/ODcontrol (MCF-7 cells; [1]) | Inhibitory rate (MCF-7 cells; [2]) | Inhibition rate (MCF-7 cells; [3]) | Inhibition rate (16μM), 48 h, MCF-7 (MCF-7 cells) | ODtreated/ODcontrol (MCF-7 cells; second of three experiments) | ODtreated/ODcontrol (MCF-7 cells; third of three experiments) | ODtreated/ODcontrol (KYSE-30 cells; [4]) | Inhibitory rate (KYSE-30 cells; first of three experiments) | Inhibitory rate (KYSE-30 cells; second of three experiments) | Inhibitory rate (KYSE-30 cells; third of three experiments) | ODtreated/ODcontrol (KYSE-30 cells; [5]) | ODtreated/ODcontrol (KYSE-30 cells; [6]) | Inhibition rate (16μM), 48 h, KYSE-30 (KYSE-30 cells) | Inhibitory rate (HeLa cells) | ODtreated/ODcontrol (HeLa cells) | Inhibition rate (16μM), 48 h, Hela (HeLa cells) | IC50 (HepG2 cells) | Inhibitory rate (HepG2 cells) | ODtreated/ODcontrol (HepG2 cells) | further results
C[C@H]1CO[C@@H]2Cn3cc(C(=O)NCc4ccc(F)cc4F)c(=O)c(O)c3C(=O)N12 [Cabotegravir] | – | – | – | – | – | – | – | – | – | – | – | – | – | – | – | – | – | – | – | – | IC50 (HepG2 cells; Homo sapiens): > 50 µM
COc1c2n(cc(C(=O)Nc3cccc(-c4cn(-c5ccccc5C(F)(F)F)nn4)c3)c1=O)C[C@H]1OC[C@H](C)N1C2=O [KJ-1] | 0.4609 | 0.5391 | 0.4929 | 0.3773 | 44.37±5.97 | 0.5071 | 0.6227 | 0.5729 | 0.4271 | 0.3646 | 0.3875 | 0.6354 | 0.6125 | 39.31±3.16 | 0.456 and 0.4789 and 0.3414 | 0.544 and 0.5211 and 0.6586 | 44.98±3.26 | 13.6 ± 1.09 µM | 0.48 and 0.4907 and 0.4342 | 0.52 and 0.5093 and 0.5658 | Inhibition rate (16μM), 48 h, HepG2 (HepG2 cells): 46.83±3.00
COc1c2n(cc(C(=O)Nc3cccc(-c4cn(-c5ccccc5F)nn4)c3)c1=O)C[C@H]1OC[C@H](C)N1C2=O [KJ-2] | 0.5009 | 0.4991 | 0.4718 | 0.4501 | 47.43±2.55 | 0.5282 | 0.5499 | 0.5011 | 0.4989 | 0.4582 | 0.3717 | 0.5418 | 0.6283 | 44.92±6.50 | 0.497 and 0.5116 and 0.431 | 0.503 and 0.4884 and 0.569 | 47.99±4.29 | 25.3 ± 2.07 µM | 0.513 and 0.5093 and 0.5087 | 0.487 and 0.4907 and 0.4913 | Inhibition rate (16μM), 48 h, HepG2 (HepG2 cells): 51.03±0.23
COc1c2n(cc(C(=O)Nc3cccc(-c4cn(-c5ccccc5C)nn4)c3)c1=O)C[C@H]1OC[C@H](C)N1C2=O [KJ-3] | 0.4113 | 0.5887 | 0.4254 | 0.3305 | 38.91±5.12 | 0.5746 | 0.6695 | 0.6097 | 0.3903 | 0.2997 | 0.2805 | 0.7003 | 0.7195 | 32.35±5.86 | 0.3938 and 0.4133 and 0.3211 | 0.6062 and 0.5867 and 0.6789 | 37.61±4.86 | 19.5 ± 0.5 µM | 0.4219 and 0.4728 and 0.4157 | 0.5781 and 0.5272 and 0.5843 | Inhibition rate (16μM), 48 h, HepG2 (HepG2 cells): 43.68±3.13
